From patent US8252807B2, “Methods of inhibiting the interaction between S100 and the receptor for advanced glycation end-products” (Board of Regents, The University of Texas System, priority 2007, dated 2012)

Tests used:
Panc-1 cells = test: Panc-1 cell growth (MTS); type: cell-based
Description: Panc-1 pancreatic adenocarcinoma cells (1.0×10^3 cells/well) were cultured in the presence or absence of S100P (100 nM) and with or without cromolyn (100 μM), and cell proliferation was analyzed at 24, 48, and 72 hours. Means and 95% confidence intervals of three independent experiments performed in triplicate are shown. *, P=0.001, S100P alone versus S100P+cromolyn.
Panc-1 cells were plated at 1.0×10^3 cells/well and treated with platelet-derived growth factor (10 ng/mL) with or without cromolyn (100 μM), and cell proliferation was analyzed after 48 hours. Means and 95% confidence intervals of three independent experiments performed in triplicate are shown. *, P=0.004 PDGF and P=0.022 cromolyn+PDGF versus control.
(§1) Growth of Panc-1 and BxPC3 pancreatic adenocarcinoma cells was analyzed using MTS reagent (Promega, Madison, Wis.) according to the manufacturer's directions. Purified S100P (100 nM final concentration) with or without cromolyn (100 μM final concentration) was added to Panc-1 cells. Only cromolyn (0-100 μM) was added to BxPC-3 cells, which express endogenous S100P. For both cell models, 1.0×10^3 cells/well were plated in 96-well culture dishes. Cells were treated with S100P, PDGF, or cromolyn, or a combination, followed immediately by treatment with either S100P or PDGF. MTS (20 μL per well) was added to cells at various times, and the mixture was incubated for 1 hour at 37° C. Samples were then read at 490 nm (as O.D. units) on a uQuant-Microplate Spectrophotometer (Bio-Tek Services Inc., Richmond, Va.). The assay was performed three times in triplicate.

PC3 prostate cells = test: PC3 prostate cell viability with taxol; type: cell-based; settings: taxol 100 nM, cromolyn 10 μM, 48 hours
Description: PC3 prostate cells were plated and treated with taxol (100 nM) either in the presence or absence of cromolyn (10 μM) for 48 hours. Cell viability was analyzed after 48 hours. *, P<0.05.

BxPC-3 cells = test: BxPC-3 cell growth (MTS); type: cell-based; settings: 48 hours; for BxPC-3 basal cell proliferation, mean: 0 μM mean=1.2
Description: as §1, with “BxPC-3 cells were plated at 1.0×10^3 cells/well and treated with 0 μM, 1 μM, 10 μM, and 100 μM of cromolyn, and cell proliferation was analyzed after 48 hours. Means and 95% confidence intervals of three independent experiments performed in triplicate are shown. *, P=0.002; †, P<0.001 versus control. Growth” for “Growth”

S100P and RAGE = molecular target: T1, S100P and RAGE (Homo sapiens, UniProt P25815); test: Co-immunoprecipitation of S100P and RAGE from BxPC-3 cell lysates; type: binding; settings: cromolyn 100 μM
T1 construct: endogenous in cells; host or cells: BxPC-3 pancreatic adenocarcinoma cell lysate
T1 sequence (P25815 1-95): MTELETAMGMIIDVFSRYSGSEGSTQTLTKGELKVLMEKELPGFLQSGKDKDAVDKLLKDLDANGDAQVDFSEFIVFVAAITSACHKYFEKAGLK
Description: Receptor for advanced glycation end products (RAGE) was identified in the immunoprecipitates by immunoblotting with a goat polyclonal anti-RAGE antibody and anti-S100P as an internal control. In the lower panel, one representative blot and densitometric analysis (means and 95% confidence intervals [CIs]) of three independent experiments is shown. *P<0.001, versus IP α-S100P without cromolyn.
For co-immunoprecipitation experiments, BxPC-3 cell lysates were incubated in the absence or presence of cromolyn (100 μM) at 4° C. overnight. S100P was immunoprecipitated using a mouse monoclonal anti-S100P antibody (Transduction Laboratories, San Diego, Calif.) for 6 hours at 4° C. and IgG-immobilized beads (Pierce Biotechnology, Inc. Rockford, Ill.). Antibody-associated proteins were electrophoresed on 10% polyacrylamide gels and electrophoretically transferred to nitrocellulose membranes. Membranes were blocked in PBS/5% milk overnight at 4° C. RAGE was detected using a goat polyclonal anti-RAGE antibody (1:200, Santa Cruz, Santa Cruz, Calif.), and S100P was detected using a goat polyclonal anti-S100P antibody (1:50, R & D systems, Minneapolis, Minn.) by immunoblotting as described in Arumugam, et al., S100P stimulates cell proliferation and survival via receptor for activated glycation end products (RAGE); J. Biol. Chem. 2004 Feb. 13; 279(7):5059-65. Briefly, membranes were incubated in primary antibody for 1 hour at room temperature followed by incubation with horseradish peroxidase-labeled secondary antibody for 30 minutes at room temperature. After a thorough wash in TBS-T buffer (1M Tris-HCL pH 8.3, 3M NaCl, 0.1% Tween-20), antibody-protein complexes were detected by using a chemiluminescent substrate (GE Healthcare Bio-Sciences Corp., Piscataway, N.J.). The intensity of the band was estimated (as density units) using densitometry (GS-250 Molecular Imaging System, Bio-Rad Laboratories, Richmond, Calif.). The experiment was repeated three times.

MPan-96 cells = test: MPanc-96 cell invasiveness; type: cell-based, human

Structure (SMILES): O=C(O)c1cc(=O)c2c(OCC(O)COc3cccc4oc(C(=O)O)cc(=O)c34)cccc2o1 [cromolyn, disodium 1,3-bis[(2′-carboxylatochromon-5′-yl)oxy]-2-hydroxypropane]
- serum stimulated Panc-1 cell proliferation (Panc-1 cells): did not influence
- PDGF-stimulated Panc-1 growth in presence of cromolyn (Panc-1 cells; PDGF 10 ng/mL, cromolyn 100 μM, 48 hours): nor did it inhibit growth stimulation caused by PDGF
- Panc-1 cell proliferation, mean (Panc-1 cells; S100P 100 nM + cromolyn 100 μM): 0.56 MTS units
- Panc-1 cell proliferation, difference S100P versus S100P+cromolyn (Panc-1 cells; S100P 100 nM, cromolyn 100 μM): 0.37 MTS units
- effects of exogenous S100P treatment on Panc-1 proliferation (Panc-1 cells; S100P 100 nM, cromolyn 100 μM): completely blocked
- Panc-1 cell proliferation, cromolyn treatment alone (Panc-1 cells; no S100P): no effect
- cell killing effect of taxol on prostate cancer cells (PC3 prostate cells): increased the cell killing effect of taxol
- BxPC-3 cell proliferation, difference versus 0 μM (BxPC-3 cells; cromolyn 10 μM): 0.5 MTS units
- BxPC-3 basal cell proliferation, mean (BxPC-3 cells; cromolyn 10 μM): 0.7 MTS units
- BxPC-3 cell proliferation, difference versus 0 μM (BxPC-3 cells; cromolyn 100 μM): 0.6 MTS units
- BxPC-3 basal cell proliferation, mean (BxPC-3 cells; cromolyn 100 μM): 0.6 MTS units
- co-immunoprecipitation of S100P and RAGE, difference control versus cromolyn (S100P and RAGE): 25640 density units
- total amount of S100P immunoprecipitated (S100P and RAGE): no effect
- co-immunoprecipitation of S100P and RAGE, mean (S100P and RAGE; control mean=34040): 8410 density units
- MPanc-96 basal cell invasiveness (MPan-96 cells): inhibited basal cell invasiveness
